Results as given in patent publication US20030232839A1, “Treatment of sleeping disorders using CNS sleep target modulators” (Hypnion, Inc., priority 2002, published 2003).

Tests used:
rat 5-HT2A receptor = rat 5-HT2A receptor (Rattus norvegicus, UniProt P14842); test: 5-HT2A binding study, rat receptor; settings: read-out: 5HT-2a Ki, Rat
human 5-HT2A receptor = human 5-HT2A receptor (Homo sapiens, UniProt P28223); test: 5-HT2A binding study, human receptor; settings: read-out: 5HT-2a Ki, Human
Male Wistar rats = test: SCORE-2000 sleep-wake assay (EEG/EMG, locomotor activity, body temperature)
[1] = 3 mg/kg and 10 mg/kg IP at CT-5

Sequence of rat 5-HT2A receptor (P14842 whole entry): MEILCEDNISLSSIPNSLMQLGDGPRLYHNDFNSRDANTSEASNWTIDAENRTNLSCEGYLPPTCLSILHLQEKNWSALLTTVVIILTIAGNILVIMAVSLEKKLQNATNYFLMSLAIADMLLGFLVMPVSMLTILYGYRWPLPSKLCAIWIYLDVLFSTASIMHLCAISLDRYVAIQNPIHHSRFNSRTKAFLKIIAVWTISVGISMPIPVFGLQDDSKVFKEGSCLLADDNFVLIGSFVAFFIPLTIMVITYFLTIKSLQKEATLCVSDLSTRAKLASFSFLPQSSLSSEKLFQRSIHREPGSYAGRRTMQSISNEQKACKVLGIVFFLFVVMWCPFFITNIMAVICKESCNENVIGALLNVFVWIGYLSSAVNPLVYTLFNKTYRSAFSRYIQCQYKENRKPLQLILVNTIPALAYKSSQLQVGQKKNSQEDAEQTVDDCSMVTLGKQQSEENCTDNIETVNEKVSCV
Sequence of human 5-HT2A receptor (P28223 whole entry): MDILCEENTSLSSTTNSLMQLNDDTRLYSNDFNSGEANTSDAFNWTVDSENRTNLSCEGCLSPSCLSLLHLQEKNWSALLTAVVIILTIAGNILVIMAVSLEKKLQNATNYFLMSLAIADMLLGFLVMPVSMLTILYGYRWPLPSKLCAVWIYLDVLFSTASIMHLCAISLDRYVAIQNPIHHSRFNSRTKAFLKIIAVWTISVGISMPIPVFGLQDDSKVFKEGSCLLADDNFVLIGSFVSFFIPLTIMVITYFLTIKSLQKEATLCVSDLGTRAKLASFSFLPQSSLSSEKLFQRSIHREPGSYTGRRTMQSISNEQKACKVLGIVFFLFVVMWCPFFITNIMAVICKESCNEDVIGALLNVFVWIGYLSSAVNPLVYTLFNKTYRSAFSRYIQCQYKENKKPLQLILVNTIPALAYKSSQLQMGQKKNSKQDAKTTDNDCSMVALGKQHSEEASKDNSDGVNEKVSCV

Row | Compound | Ki (rat 5-HT2A receptor) [µM] | Ki (human 5-HT2A receptor) [µM] | activity on sleep-wakefulness in all measured variables (Male Wistar rats; 30 mg/kg) | increasing sleep and sleep consolidation (Male Wistar rats; 30 mg/kg) | duration of interference with sleep post-treatment (Male Wistar rats; [1]) [h] | duration of reduction in nonREM sleep time post-treatment (Male Wistar rats; [1]) [h] | rebound hypersomnolence after sleep interference (Male Wistar rats; [1])
1 | Cl.O=C(O)C1CN(CCCn2nc3ccccn3c2=O)CCN1c1cccc(Cl)c1 (stereo not shown) [HY-2724] | 0.989 | > 10 | inactive | ineffective | – | – | –
2 | Clc1cccc(N2CCNCC2)c1 [m-CPP, meta-chlorophenylpiperazine] | – | – | – | – | 2 to 3 | 2 to 3 | followed by a rebound hypersomnolence
